Data reported in patent US10479810B2, “Crystal form of tenofovir alafenamide salt, preparation method and use thereof” (SHANGHAI BEGREAT PHARMATECH, priority 2016, dated 2019).
Where two headings read alike, the source gives them in different places.

Conditions: for TAF total degradation impurities %: mixtures with emtricitabine at weight ratio about 1:15, HPLC
Method: In this patent, TAF fumarate crystal form I (prepared according to the method of WO2013025788A1), TAF fumarate crystal form II, TAF fumarate crystal form A and TAF fumarate crystal form B and emtricitabine are compared. The mixture was mixed at a weight ratio of about 1:15, placed at 40° C. and a relative humidity of 75%, and placed open for 21 days. The degradation of TAF was analyzed by HPLC at 0 days and 21 day.

Row | Compound | TAF total degradation impurities % (0 day) [%] | TAF total degradation impurities % (21 day, 40° C., relative humidity 75%, placed open) [%] | chemical compatibility of TAF with emtricitabine (compared with TAF hemifumarate crystal form I in combination with emtricitabine)
1 | Tenofovir alafenamide hemifumarate [TAF fumarate Form I] | 0.1 | 0.9 | 
2 | CC(C)OC(=O)[C@H](C)N[P@](=O)(CO[C@H](C)Cn1cnc2c(N)ncnc21)Oc1ccccc1.O=C(O)/C=C/C(=O)O [TAF fumarate Form II, 9-[(R)-2-[[(S)-[[(S)-1-(isopropoxycarbonyl)ethyl]amino]phenoxyphosphinyl]methoxy]propyl]adenine fumarate] |  |  | significantly improve
